Values joined by “and” are separate entries in the source; they are usually repeats but may differ in a detail not shown here. Identical values can stand only once. Toxic doses and inconclusive results are not listed. Cut-off read from the data, not from the text of the source: active = T/C of 150% or more; inactive = T/C below 125%.
Test system: L1210 leukemia ip in BDF1 mice, survival T/C
Experiment: NCI In Vivo Anticancer Drug Screen. Data for tumor model L1210 Leukemia (intraperitoneal) in B6D2F1 (BDF1) mice
Settings: endpoint: mean survival time, higher = longer survival
Summary of the method: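 Mice bearing the transplanted tumor received compound or vehicle. Survival of the treated group was divided by that of the vehicle-treated control group to give the ratio.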

[1] = dose: 6.25 mg/kg/injection, schedule: Q01DX009 (ip), vehicle: saline with Tween-80
[2] = dose: 12.5 mg/kg/injection, schedule: Q01DX009 (ip), vehicle: saline with Tween-80
[3] = dose: 100.0 mg/kg/injection, schedule: Q04DX003 (ip), vehicle: saline with Tween-80
[4] = dose: 200.0 mg/kg/injection, schedule: Q04DX003 (ip), vehicle: saline with Tween-80
[5] = dose: 400.0 mg/kg/injection, schedule: Q04DX003 (ip), vehicle: saline with Tween-80
[6] = dose: 100.0 mg/kg/injection, schedule: Q04DX003 (ip), vehicle: saline
[7] = dose: 200.0 mg/kg/injection, schedule: Q04DX003 (ip), vehicle: saline
[8] = dose: 100.0 mg/kg/injection, schedule: Q01DX001 (ip), vehicle: saline
[9] = dose: 200.0 mg/kg/injection, schedule: Q01DX001 (ip), vehicle: saline
[10] = dose: 400.0 mg/kg/injection, schedule: Q01DX001 (ip), vehicle: saline
[11] = dose: 100.0 mg/kg/injection, schedule: Q01DX009 (ip), vehicle: saline
[12] = dose: 100.0 mg/kg/injection, schedule: Q04DX003 (ip), vehicle: acetone
[13] = dose: 200.0 mg/kg/injection, schedule: Q01DX009 (ip), vehicle: saline
[14] = dose: 200.0 mg/kg/injection, schedule: Q04DX003 (ip), vehicle: acetone
[15] = dose: 400.0 mg/kg/injection, schedule: Q01DX009 (ip), vehicle: saline
[16] = dose: 400.0 mg/kg/injection, schedule: Q04DX003 (ip), vehicle: acetone

Measured: T/C

[CH3][Ga]([CH3])[O]c1ccccc1C=O
inactive: dose: 1.5 mg/kg/injection, schedule: Q01DX009 (ip), vehicle: DMSO 97 % of control | dose: 1.5 mg/kg/injection, schedule: Q04DX003 (ip), vehicle: DMSO 107 % of control | dose: 3.0 mg/kg/injection, schedule: Q01DX009 (ip), vehicle: DMSO 97 % of control | dose: 3.0 mg/kg/injection, schedule: Q04DX003 (ip), vehicle: DMSO 94 % of control | dose: 6.0 mg/kg/injection, schedule: Q01DX009 (ip), vehicle: DMSO 108 % of control | dose: 6.0 mg/kg/injection, schedule: Q04DX003 (ip), vehicle: DMSO 102 % of control

ClCCN(CCCl)CCCN1c2ccccc2Sc2ccccc21
inactive: [1] 109 % of control | [2] 115 % of control | dose: 12.5 mg/kg/injection, schedule: Q04DX003 (ip), vehicle: saline with Tween-80 97 % of control | dose: 16.0 mg/kg/injection, schedule: Q04DX003 (ip), vehicle: saline with Tween-80 114 % of control | dose: 16.0 mg/kg/injection, schedule: Q04DX003 (ip), vehicle: saline 100 % of control | dose: 25.0 mg/kg/injection, schedule: Q04DX003 (ip), vehicle: saline with Tween-80 97 % of control | dose: 26.0 mg/kg/injection, schedule: Q04DX003 (ip), vehicle: saline 107 % of control | dose: 35.0 mg/kg/injection, schedule: Q04DX003 (ip), vehicle: saline with Tween-80 90 % of control | dose: 35.0 mg/kg/injection, schedule: Q04DX003 (ip), vehicle: saline 103 % of control | dose: 50.0 mg/kg/injection, schedule: Q04DX003 (ip), vehicle: saline with Tween-80 121 % of control

NC(=Nc1ccc([N+](=O)[O-])cc1)c1ccccc1
inactive: [3] 98 % of control | [4] 102 % of control | [5] 100 % of control

O=C(C[n+]1cccc(C(=O)Nc2ccc(Cl)cc2)c1)Nc1ccccc1
inactive: [6] 92 % of control | [7] 101 % of control

O=C(O)c1ccnc(Cl)c1
inactive: [3] 101 % of control | [4] 102 % of control | [5] 101 % of control

COc1ccc(-c2c(C)c(C(=O)O)nc(-c3ccc4c(O)c(OC)c5c(c4n3)=NC(C)(C)N=5)c2N)c(O)c1OC
inactive: dose: 4.5 mg/kg/injection, schedule: Q01DX Z (ip), vehicle: water 104 % of control | dose: 6.7 mg/kg/injection, schedule: Q01DX Z (ip), vehicle: water 97 % of control | dose: 10.0 mg/kg/injection, schedule: Q01DX Z (ip), vehicle: water 111 % of control | dose: 15.0 mg/kg/injection, schedule: Q01DX Z (ip), vehicle: water 103 % of control

[Br][Hg][Br].c1ccc(N=P(c2ccccc2)(c2ccccc2)c2ccccc2)cc1
inactive: dose: 9.38 mg/kg/injection, schedule: Q01DX001 (ip), vehicle: other 95 % of control | dose: 18.75 mg/kg/injection, schedule: Q01DX001 (ip), vehicle: other 95 % of control | dose: 37.5 mg/kg/injection, schedule: Q01DX001 (ip), vehicle: other 100 % of control

Cc1n(-c2ccccc2)c2ccccc2[n+]1[O-]
inactive: [8] 101 % of control | [9] 101 % of control | [10] 101 % of control

CCC(N)C(O)C(Cl)(Cl)Cl (stereo unspecified)
inactive: dose: 100.0 mg/kg/injection, schedule: Q01DX009 (ip), vehicle: saline with Tween-80 103 % of control | [3] 89 % of control | dose: 200.0 mg/kg/injection, schedule: Q01DX009 (ip), vehicle: saline with Tween-80 98 % of control | dose: 400.0 mg/kg/injection, schedule: Q01DX009 (ip), vehicle: saline with Tween-80 109 % of control

CC(=O)O[C@H]1CC[C@]2(C)C3=C([C@@H](OO)C[C@H]2C1(C)C)[C@]1(C)CC[C@H]([C@H](C)CCCC(C)C)[C@@]1(C)CC3
inactive: dose: 100.0 mg/kg/injection, schedule: Q01DX001 (ip), vehicle: other 97 % of control | dose: 200.0 mg/kg/injection, schedule: Q01DX001 (ip), vehicle: other 95 % of control | dose: 400.0 mg/kg/injection, schedule: Q01DX001 (ip), vehicle: other 95 % of control

CC(C)N1CC(C)(C)N=C1C(C#N)c1cnc2ccccc2n1 (stereo unspecified)
inactive: [8] 98 % of control | [9] 94 % of control | [10] 94 % of control

CCCCCCCCC(=O)N(CCCC)CCCC
inactive: dose: 100.0 mg/kg/injection, schedule: Q01DX009 (ip), vehicle: carboxymethylcellulose (CMC) 97 % of control and 100 % of control | dose: 100.0 mg/kg/injection, schedule: Q04DX002 (ip), vehicle: carboxymethylcellulose (CMC) 94 % of control | dose: 200.0 mg/kg/injection, schedule: Q01DX009 (ip), vehicle: carboxymethylcellulose (CMC) 93 % of control and 100 % of control | dose: 200.0 mg/kg/injection, schedule: Q04DX002 (ip), vehicle: carboxymethylcellulose (CMC) 93 % of control | dose: 400.0 mg/kg/injection, schedule: Q01DX009 (ip), vehicle: carboxymethylcellulose (CMC) 89 % of control | dose: 400.0 mg/kg/injection, schedule: Q04DX002 (ip), vehicle: carboxymethylcellulose (CMC) 93 % of control

C=CC1(C)CO1 (stereo unspecified)
inactive: [6] 93 % of control | [7] 112 % of control | dose: 400.0 mg/kg/injection, schedule: Q04DX003 (ip), vehicle: saline 96 % of control

CCN(CC)COC(C)=O
inactive: [8] 103 % of control | [9] 106 % of control | [10] 106 % of control

CCCCCCCCCCCCCCCCCCNC(=O)OCC
inactive: dose: 100.0 mg/kg/injection, schedule: Q04DX002 (sc), vehicle: olive oil, sesame oil, peanut oil 103 % of control | dose: 200.0 mg/kg/injection, schedule: Q04DX002 (sc), vehicle: olive oil, sesame oil, peanut oil 113 % of control | dose: 400.0 mg/kg/injection, schedule: Q04DX002 (sc), vehicle: olive oil, sesame oil, peanut oil 106 % of control

Nc1ncnc2c1c(-c1nn[nH]n1)cn2C1OC(CO)C(O)C1O (stereo unspecified)
inactive: dose: 12.5 mg/kg/injection, schedule: Q01DX005 (ip), vehicle: saline 121 % of control | dose: 12.5 mg/kg/injection, schedule: Q01DX009 (ip), vehicle: saline 122 % of control | dose: 50.0 mg/kg/injection, schedule: Q01DX005 (ip), vehicle: saline 108 % of control | dose: 50.0 mg/kg/injection, schedule: Q01DX009 (ip), vehicle: saline 98 % of control

Cc1cccc(C)c1/C=C/S(=O)(=O)c1ccccc1
inactive: dose: 100.0 mg/kg/injection, schedule: Q01DX001 (ip), vehicle: acetone 98 % of control | [11] 94 % of control | [12] 109 % of control | dose: 200.0 mg/kg/injection, schedule: Q01DX001 (ip), vehicle: acetone 98 % of control | [13] 103 % of control | [14] 103 % of control | dose: 400.0 mg/kg/injection, schedule: Q01DX001 (ip), vehicle: acetone 106 % of control | [15] 94 % of control | [16] 101 % of control

CCCCOCCCNCC(=O)Nc1ccc(S(=O)(=O)c2ccc(NC(=O)CNCCCOCCCC)cc2)cc1
inactive: [8] 89 % of control | [9] 97 % of control | [10] 108 % of control

CCN1CCC(CCOC)(CN2c3ccccc3Sc3ccc(Cl)cc32)C1 (stereo unspecified)
inactive: [6] 89 % of control

Nc1nc(N)c2ncn(C3CC(CO)C(O)C3O)c2n1 (stereo unspecified)
inactive: [1] 91 % of control | [2] 98 % of control | dose: 25.0 mg/kg/injection, schedule: Q01DX009 (ip), vehicle: saline with Tween-80 102 % of control

Ic1sc(I)c(I)c1I
inactive: dose: 100.0 mg/kg/injection, schedule: Q01DX001 (ip), vehicle: carboxymethylcellulose (CMC) 95 % of control | dose: 200.0 mg/kg/injection, schedule: Q01DX001 (ip), vehicle: carboxymethylcellulose (CMC) 93 % of control | dose: 400.0 mg/kg/injection, schedule: Q01DX001 (ip), vehicle: carboxymethylcellulose (CMC) 104 % of control

CC(=O)CCC1CC(=O)OC1(C)C (stereo unspecified)
inactive: [8] 102 % of control and 100 % of control | [11] 104 % of control and 88 % of control | [12] 93 % of control | [9] 102 % of control and 100 % of control | [13] 96 % of control and 88 % of control | [14] 117 % of control | [10] 96 % of control and 106 % of control | [15] 98 % of control and 86 % of control | [16] 101 % of control

CCCC(SCC(=O)O)SCC(=O)O
inactive: [11] 93 % of control | dose: 100.0 mg/kg/injection, schedule: Q04DX002 (ip), vehicle: saline 97 % of control | [13] 100 % of control | dose: 200.0 mg/kg/injection, schedule: Q04DX002 (ip), vehicle: saline 100 % of control | dose: 400.0 mg/kg/injection, schedule: Q04DX002 (ip), vehicle: saline 95 % of control
